Source: PubChem BioAssay AID1963871 (Molecular Pharmacology Branch, DTP, NCI, 2024)

Test system: KRAS-mutant PDC multicell tumor spheroid viability
Experiment: Anticancer human tumor 521955-158-R2-J5-PDC patient-derived pancreatic carcinoma cell line growth inhibition [KRAS2]
Settings: for IC50: curve of first compound; for viability, T/C: stronger effect = lower value
Procedure, shortened: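 KRAS-mutant tumor cells were grown as spheroids with HUVEC endothelial cells and human MSCs as stroma. Targeted agents were tested alone and with KRAS pathway inhibitors. Doses started at or near clinical Cmax, or 10 microM, descending half-log.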

[1] = second compound 0.1 µM, first compound 0.01 µM
[2] = second compound 0.1 µM, first compound 0.0316 µM
[3] = second compound 0.1 µM, first compound 0.1 µM
[4] = second compound 0.1 µM, first compound 0.316 µM
[5] = second compound 0.1 µM, first compound 1 µM
[6] = second compound 0.1 µM, first compound 3.16 µM
[7] = second compound 0.316 µM, first compound 0.01 µM
[8] = second compound 0.316 µM, first compound 0.0316 µM
[9] = second compound 0.316 µM, first compound 0.1 µM
[10] = second compound 0.316 µM, first compound 0.316 µM
[11] = second compound 0.316 µM, first compound 1 µM
[12] = second compound 0.316 µM, first compound 3.16 µM
[13] = second compound 1 µM, first compound 0.01 µM
[14] = second compound 1 µM, first compound 0.0316 µM
[15] = second compound 1 µM, first compound 0.1 µM
[16] = second compound 1 µM, first compound 0.316 µM
[17] = second compound 1 µM, first compound 1 µM
[18] = second compound 1 µM, first compound 3.16 µM
[19] = second compound 3.16 µM, first compound 0.01 µM
[20] = second compound 3.16 µM, first compound 0.0316 µM
[21] = second compound 3.16 µM, first compound 0.1 µM
[22] = second compound 3.16 µM, first compound 0.316 µM
[23] = second compound 3.16 µM, first compound 1 µM
[24] = second compound 3.16 µM, first compound 3.16 µM
[25] = second compound 10 µM, first compound 0.01 µM
[26] = second compound 10 µM, first compound 0.0316 µM
[27] = second compound 10 µM, first compound 0.1 µM
[28] = second compound 10 µM, first compound 0.316 µM
[29] = second compound 10 µM, first compound 1 µM
[30] = second compound 10 µM, first compound 3.16 µM
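Note: viability read after seven days of drug exposure.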

`CC1COCCN1c1cc(-c2ccnn2C)c2ccnc(-c3ccn[nH]3)c2n1` (stereo not given) + CC1OCC2(CCN(c3cnc(Sc4ccnc(N)c4Cl)c(N)n3)CC2)C1N gave an IC50 (second compound 0.1 µM) of 18.3 nM, an IC50 (second compound 0.316 µM) of 16.1 nM and an IC50 (second compound 1 µM) of 13.2 nM. For the same compound, the IC50 (second compound 3.16 µM) was 13.9 nM, the IC50 (second compound 10 µM) was 10.6 nM and the viability, T/C [1] was 75%. The viability, T/C [2] was 27.6%, the viability, T/C [3] was 7.87% and the viability, T/C [4] was 9.44%. For the same compound, the viability, T/C [5] was 14.9%, the viability, T/C [6] was 16.7% and the viability, T/C [7] was 67.2%. It also gave a viability, T/C [8] of 25.4%, a viability, T/C [9] of 6.51% and a viability, T/C [10] of 8.34%. It also gave a viability, T/C [11] of 12.3%, a viability, T/C [12] of 17.1% and a viability, T/C [13] of 56.6%. It also gave a viability, T/C [14] of 29%, a viability, T/C [15] of 7.13% and a viability, T/C [16] of 7.87%. For the same compound, the viability, T/C [17] was 11.1%, the viability, T/C [18] was 17.2% and the viability, T/C [19] was 59.9%. It also gave a viability, T/C [20] of 25.4%, a viability, T/C [21] of 7.05% and a viability, T/C [22] of 7.79%. The viability, T/C [23] was 10.5%, the viability, T/C [24] was 16.8% and the viability, T/C [25] was 51.3%. For the same compound, the viability, T/C [26] was 27.4%, the viability, T/C [27] was 7.9% and the viability, T/C [28] was 8.11%. It also gave a viability, T/C [29] of 11.4% and a viability, T/C [30] of 15.6%.
Work on `Cn1nccc1Nc1nccc(-c2cc3c(s2)C(C)(C)N(CCN2CCOCC2)C3=O)n1` + CC1OCC2(CCN(c3cnc(Sc4ccnc(N)c4Cl)c(N)n3)CC2)C1N yielded an IC50 (second compound 0.1 µM) of 493 nM, an IC50 (second compound 0.316 µM) of 485 nM and an IC50 (second compound 1 µM) of 490 nM. It also gave an IC50 (second compound 3.16 µM) of 602 nM, an IC50 (second compound 10 µM) of 427 nM and a viability, T/C [2] of 94.1%. It also gave a viability, T/C [3] of 70.9%, a viability, T/C [4] of 58.5% and a viability, T/C [5] of 41.5%. For the same compound, the viability, T/C [6] was 25%, the viability, T/C (second compound 0.1 µM, first compound 10 µM) was 19.6% and the viability, T/C [8] was 69.9%. For the same compound, the viability, T/C [9] was 62.1%, the viability, T/C [10] was 58.4% and the viability, T/C [11] was 38.5%. For the same compound, the viability, T/C [12] was 25.4%, the viability, T/C (second compound 0.316 µM, first compound 10 µM) was 15.6% and the viability, T/C [14] was 73.6%. The viability, T/C [15] was 66.9%, the viability, T/C [16] was 57.5% and the viability, T/C [17] was 38.7%. The viability, T/C [18] was 24.7%, the viability, T/C (second compound 1 µM, first compound 10 µM) was 15.9% and the viability, T/C [20] was 71.4%. It also gave a viability, T/C [21] of 63.1%, a viability, T/C [22] of 63% and a viability, T/C [23] of 40.4%. It also gave a viability, T/C [24] of 23.3%, a viability, T/C (second compound 3.16 µM, first compound 10 µM) of 18.4% and a viability, T/C [26] of 50.9%. For the same compound, the viability, T/C [27] was 56%, the viability, T/C [28] was 57.9% and the viability, T/C [29] was 36%. For the same compound, the viability, T/C [30] was 27.3% and the viability, T/C (second compound 10 µM, first compound 10 µM) was 18.2%.
For `CC(=O)OC12COC1CC(O)C1(C)C(=O)C(O)C3=C(C)C(OC(=O)C(O)C(NC(=O)OC(C)(C)C)c4ccccc4)CC(O)(C(OC(=O)c4ccccc4)C21)C3(C)C` (stereo not given) + CNCc1ccccc1-c1csc(C(C)Nc2nc(C)nc3cc(OC)c(OC)cc23)c1, the IC50 (second compound 0.1 µM) was < 10 nM, the IC50 (second compound 0.316 µM) was < 10 nM and the IC50 (second compound 1 µM) was < 10 nM. For the same compound, the IC50 (second compound 3.16 µM) was < 10 nM, the IC50 (second compound 10 µM) was < 10 nM and the viability, T/C [1] was 28.2%. The viability, T/C [2] was 16.2%, the viability, T/C [3] was 15.3% and the viability, T/C [4] was 14.8%. For the same compound, the viability, T/C [5] was 16.6%, the viability, T/C [6] was 20.3% and the viability, T/C [7] was 20.4%. It also gave a viability, T/C [8] of 16.6%, a viability, T/C [9] of 16.7% and a viability, T/C [10] of 15.8%. The viability, T/C [11] was 19.6%, the viability, T/C [12] was 23.6% and the viability, T/C [13] was 23%. The viability, T/C [14] was 13.2%, the viability, T/C [15] was 13.2% and the viability, T/C [16] was 13.2%. For the same compound, the viability, T/C [17] was 19.9%, the viability, T/C [18] was 20% and the viability, T/C [19] was 0.16%. For the same compound, the viability, T/C [20] was 13.9%, the viability, T/C [21] was 0.05% and the viability, T/C [22] was 0.05%. The viability, T/C [23] was 0.1%, the viability, T/C [24] was 17% and the viability, T/C [25] was 0.17%. For the same compound, the viability, T/C [26] was 0.14%, the viability, T/C [27] was 0.11% and the viability, T/C [28] was 0.11%. The viability, T/C [29] was 0.12% and the viability, T/C [30] was 0.34%.
For `CN(C)C/C=C/C(=O)Nc1cc2c(Nc3ccc(F)c(Cl)c3)ncnc2cc1O[C@H]1CCOC1` + CNCc1ccccc1-c1csc(C(C)Nc2nc(C)nc3cc(OC)c(OC)cc23)c1, the IC50 (second compound 0.1 µM) was > 100 nM, the IC50 (second compound 0.316 µM) was > 100 nM and the IC50 (second compound 1 µM) was > 100 nM. The IC50 (second compound 3.16 µM) was 2.23 nM, the IC50 (second compound 10 µM) was < 0.316 nM and the viability, T/C (second compound 0.1 µM, first compound 0.000316 µM) was 107%. It also gave a viability, T/C (second compound 0.1 µM, first compound 0.001 µM) of 104%, a viability, T/C (second compound 0.1 µM, first compound 0.00316 µM) of 93.3% and a viability, T/C [1] of 91%. It also gave a viability, T/C [2] of 88.9%, a viability, T/C [3] of 77.3% and a viability, T/C (second compound 0.316 µM, first compound 0.000316 µM) of 110%. It also gave a viability, T/C (second compound 0.316 µM, first compound 0.001 µM) of 93.5%, a viability, T/C (second compound 0.316 µM, first compound 0.00316 µM) of 81.1% and a viability, T/C [7] of 92.6%. It also gave a viability, T/C [8] of 98.5%, a viability, T/C [9] of 64.4% and a viability, T/C (second compound 1 µM, first compound 0.000316 µM) of 113%. The viability, T/C (second compound 1 µM, first compound 0.001 µM) was 120%, the viability, T/C (second compound 1 µM, first compound 0.00316 µM) was 100% and the viability, T/C [13] was 100%. For the same compound, the viability, T/C [14] was 97%, the viability, T/C [15] was 97.7% and the viability, T/C (second compound 3.16 µM, first compound 0.000316 µM) was 114%. For the same compound, the viability, T/C (second compound 3.16 µM, first compound 0.001 µM) was 116%, the viability, T/C (second compound 3.16 µM, first compound 0.00316 µM) was 0.23% and the viability, T/C [19] was 0.26%. For the same compound, the viability, T/C [20] was 85.9%, the viability, T/C [21] was 1% and the viability, T/C (second compound 10 µM, first compound 0.000316 µM) was 0.27%. For the same compound, the viability, T/C (second compound 10 µM, first compound 0.001 µM) was 0.27%, the viability, T/C (second compound 10 µM, first compound 0.00316 µM) was 0.18% and the viability, T/C [25] was 0.16%. For the same compound, the viability, T/C [26] was 0.23% and the viability, T/C [27] was 0.24%.
